Source: PubChem BioAssay (NCI)
Several values for one entry are separate records, joined by “and”; a condition that tells them apart may be missing. Identical values can stand only once.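 1) Cells in 96-well plates. 2) Compound, 48 h, 5 concentrations. 3) Linear interpolation between surrounding doses. 4) Unreached endpoint = highest concentration. GI50: concentration for 50% inhibition of growth. At the TGI there is no net growth.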

What was measured:
Test in all cases: inhibition of tumour cell growth, NCI panel, 48 h
DU-145 prostate = test system: DU-145 prostate
NCI/ADR-RES ovarian = test system: NCI/ADR-RES ovarian
HCT-116 colon = test system: HCT-116 colon
MALME-3M melanoma = test system: MALME-3M melanoma
NCI-H522 lung = test system: NCI-H522 lung
NCI-H460 lung = test system: NCI-H460 lung
HOP-62 NSCLC = test system: HOP-62 NSCLC
MDA-MB-435 = test system: MDA-MB-435
786-0 renal = test system: 786-0 renal
ACHN renal = test system: ACHN renal
SN12C renal = test system: SN12C renal
A549 NSCLC = test system: A549 NSCLC
K-562 leukemia = test system: K-562 leukemia
HCT-15 colon = test system: HCT-15 colon
MDA-MB-231 breast = test system: MDA-MB-231 breast
A498 renal = test system: A498 renal
RPMI-8226 leukemia = test system: RPMI-8226 leukemia
TK-10 renal = test system: TK-10 renal
SK-OV-3 ovarian = test system: SK-OV-3 ovarian
NCI-H23 lung = test system: NCI-H23 lung
OVCAR-3 ovarian = test system: OVCAR-3 ovarian
UACC-257 melanoma = test system: UACC-257 melanoma
SW-620 colon = test system: SW-620 colon
COLO 205 colon = test system: COLO 205 colon
OVCAR-8 ovarian = test system: OVCAR-8 ovarian
SF-539 CNS = test system: SF-539 CNS
UACC-62 melanoma = test system: UACC-62 melanoma
T-47D breast = test system: T-47D breast
SR leukemia = test system: SR leukemia
PC-3 prostate = test system: PC-3 prostate
SK-MEL-5 melanoma = test system: SK-MEL-5 melanoma
OVCAR-5 ovarian = test system: OVCAR-5 ovarian
HS 578T breast = test system: HS 578T breast
SNB-19 CNS = test system: SNB-19 CNS
BT-549 breast = test system: BT-549 breast
SK-MEL-28 melanoma = test system: SK-MEL-28 melanoma
SNB-75 CNS = test system: SNB-75 CNS
HT29 colon = test system: HT29 colon
UO-31 renal = test system: UO-31 renal
KM12 colon = test system: KM12 colon
SF-268 CNS = test system: SF-268 CNS
HOP-92 NSCLC = test system: HOP-92 NSCLC
SF-295 CNS = test system: SF-295 CNS
NCI-H226 lung = test system: NCI-H226 lung
SK-MEL-2 melanoma = test system: SK-MEL-2 melanoma
U251 CNS = test system: U251 CNS
LOX IMVI melanoma = test system: LOX IMVI melanoma
IGROV1 ovarian = test system: IGROV1 ovarian
EKVX NSCLC = test system: EKVX NSCLC
CCRF-CEM leukemia = test system: CCRF-CEM leukemia
CAKI-1 renal = test system: CAKI-1 renal
HL-60(TB) leukemia = test system: HL-60(TB) leukemia
M14 melanoma = test system: M14 melanoma
HCC-2998 colon = test system: HCC-2998 colon
MCF7 breast = test system: MCF7 breast
MOLT-4 leukemia = test system: MOLT-4 leukemia
OVCAR-4 ovarian = test system: OVCAR-4 ovarian
RXF 393 renal = test system: RXF 393 renal
MDA-N = test system: MDA-N
KM20L2 colon = test system: KM20L2 colon
XF 498 CNS = test system: XF 498 CNS

Structure (SMILES): O=C(O)[C@H]1NC[C@H]2C(Br)=NO[C@@H]12
- TGI (DU-145 prostate): > 100 µM
- TGI (NCI/ADR-RES ovarian): > 100 µM
- TGI (HCT-116 colon): > 100 µM
- TGI (MALME-3M melanoma): > 100 µM
- TGI (NCI-H522 lung): > 100 µM
- TGI (NCI-H460 lung): > 100 µM
- TGI (HOP-62 NSCLC): > 100 µM
- TGI (MDA-MB-435): > 100 µM
- TGI (786-0 renal): > 100 µM
- TGI (ACHN renal): > 100 µM
- TGI (SN12C renal): > 100 µM
- TGI (A549 NSCLC): > 100 µM
- TGI (K-562 leukemia): > 100 µM
- TGI (HCT-15 colon): > 100 µM
- TGI (MDA-MB-231 breast): > 100 µM
- TGI (A498 renal): > 100 µM
- TGI (RPMI-8226 leukemia): > 100 µM
- TGI (TK-10 renal): > 100 µM
- TGI (SK-OV-3 ovarian): > 100 µM
- TGI (NCI-H23 lung): > 100 µM
- TGI (OVCAR-3 ovarian): > 100 µM
- TGI (UACC-257 melanoma): > 100 µM
- TGI (SW-620 colon): > 100 µM
- TGI (COLO 205 colon): > 100 µM
- TGI (OVCAR-8 ovarian): > 100 µM
- TGI (SF-539 CNS): > 100 µM
- TGI (UACC-62 melanoma): > 100 µM
- TGI (T-47D breast): > 100 µM
- TGI (SR leukemia): > 100 µM
- TGI (PC-3 prostate): > 100 µM
- TGI (SK-MEL-5 melanoma): > 100 µM
- TGI (OVCAR-5 ovarian): > 100 µM
- TGI (HS 578T breast): > 100 µM
- TGI (SNB-19 CNS): > 100 µM
- TGI (BT-549 breast): > 100 µM
- TGI (SK-MEL-28 melanoma): > 100 µM
- TGI (SNB-75 CNS): > 100 µM
- TGI (HT29 colon): > 100 µM
- TGI (UO-31 renal): > 100 µM
- TGI (KM12 colon): > 100 µM
- TGI (SF-268 CNS): > 100 µM
- TGI (HOP-92 NSCLC): > 100 µM
- TGI (SF-295 CNS): > 100 µM
- TGI (NCI-H226 lung): > 100 µM
- TGI (SK-MEL-2 melanoma): > 100 µM
- TGI (U251 CNS): > 100 µM
- TGI (LOX IMVI melanoma): > 100 µM
- TGI (IGROV1 ovarian): > 100 µM
- TGI (EKVX NSCLC): > 100 µM
- TGI (CCRF-CEM leukemia): > 100 µM
- TGI (CAKI-1 renal): > 100 µM
- TGI (HL-60(TB) leukemia): > 100 µM
- TGI (M14 melanoma): > 100 µM
- TGI (HCC-2998 colon): > 100 µM
- TGI (MCF7 breast): > 100 µM
- TGI (MOLT-4 leukemia): > 100 µM
- TGI (OVCAR-4 ovarian): > 100 µM
- TGI (RXF 393 renal): > 100 µM
- TGI (MDA-N): > 100 µM

Structure (SMILES): C[C@H]1CCC/C=C/[C@@H]2C[C@H](OC3OC(CO)C(O)C(O)C3O)C[C@H]2[C@H](O)/C=C/C(=O)O1 (stereo not given in full)
- TGI (DU-145 prostate): > 100 µM
- TGI (NCI/ADR-RES ovarian): > 100 µM
- TGI (HCT-116 colon): > 100 µM
- TGI (MALME-3M melanoma): 33.1 µM
- TGI (NCI-H522 lung): > 100 µM
- TGI (NCI-H460 lung): > 100 µM
- TGI (HOP-62 NSCLC): > 100 µM
- TGI (MDA-MB-435): > 100 µM
- TGI (786-0 renal): > 100 µM
- TGI (ACHN renal): > 100 µM
- TGI (SN12C renal): > 100 µM
- TGI (A549 NSCLC): > 100 µM
- TGI (K-562 leukemia): > 100 µM
- TGI (HCT-15 colon): > 100 µM
- TGI (MDA-MB-231 breast): 42.9 µM
- TGI (A498 renal): 69.1 µM
- TGI (RPMI-8226 leukemia): > 100 µM
- TGI (TK-10 renal): > 100 µM
- TGI (SK-OV-3 ovarian): > 100 µM
- TGI (NCI-H23 lung): > 100 µM
- TGI (OVCAR-3 ovarian): > 100 µM
- TGI (UACC-257 melanoma): 78.9 µM
- TGI (SW-620 colon): > 100 µM
- TGI (COLO 205 colon): 31.9 µM
- TGI (OVCAR-8 ovarian): > 100 µM
- TGI (SF-539 CNS): > 100 µM
- TGI (UACC-62 melanoma): > 100 µM
- TGI (T-47D breast): > 100 µM
- TGI (SR leukemia): > 100 µM
- TGI (PC-3 prostate): > 100 µM
- TGI (SK-MEL-5 melanoma): 31.6 µM
- TGI (OVCAR-5 ovarian): > 100 µM
- TGI (HS 578T breast): > 100 µM
- TGI (SNB-19 CNS): > 100 µM
- TGI (BT-549 breast): > 100 µM
- TGI (SK-MEL-28 melanoma): 87.3 µM
- TGI (SNB-75 CNS): > 100 µM
- TGI (HT29 colon): > 100 µM
- TGI (UO-31 renal): > 100 µM
- TGI (KM12 colon): 98 µM
- TGI (SF-268 CNS): > 100 µM
- TGI (HOP-92 NSCLC): > 100 µM
- TGI (SF-295 CNS): > 100 µM
- TGI (NCI-H226 lung): > 100 µM
- TGI (SK-MEL-2 melanoma): > 100 µM
- TGI (U251 CNS): > 100 µM
- TGI (LOX IMVI melanoma): > 100 µM
- TGI (IGROV1 ovarian): > 100 µM
- TGI (EKVX NSCLC): > 100 µM
- TGI (CCRF-CEM leukemia): > 100 µM
- TGI (CAKI-1 renal): > 100 µM
- TGI (HL-60(TB) leukemia): > 100 µM
- TGI (M14 melanoma): > 100 µM
- TGI (HCC-2998 colon): > 100 µM
- TGI (MCF7 breast): > 100 µM
- TGI (MOLT-4 leukemia): > 100 µM
- TGI (OVCAR-4 ovarian): > 100 µM
- TGI (RXF 393 renal): 87.3 µM
- TGI (MDA-N): > 100 µM

Structure (SMILES): COc1cccc(/C=N/[N-]C(N)=O)c1[O-].[Cu+2].[OH3+]
- GI50 (HCT-116 colon): 4.09 µM
- TGI (HCT-116 colon): 15.9 µM
- TGI (MALME-3M melanoma): 28.8 µM
- TGI (KM20L2 colon): 20.6 µM
- TGI (NCI-H460 lung): 36 µM
- TGI (HOP-62 NSCLC): 44.3 µM
- TGI (786-0 renal): 30.3 µM
- TGI (ACHN renal): 24.8 µM
- TGI (SN12C renal): 27.2 µM
- GI50 (K-562 leukemia): 5.7 µM
- TGI (K-562 leukemia): 45.2 µM
- TGI (HCT-15 colon): 27.2 µM
- TGI (A498 renal): 32.2 µM
- TGI (RPMI-8226 leukemia): > 100 µM
- GI50 (NCI-H23 lung): 9.7 µM
- TGI (NCI-H23 lung): 21.9 µM
- GI50 (OVCAR-3 ovarian): 10.4 µM
- TGI (OVCAR-3 ovarian): 22.8 µM
- TGI (UACC-257 melanoma): 28.5 µM
- TGI (SW-620 colon): 27.3 µM
- GI50 (COLO 205 colon): 9.49 µM
- TGI (COLO 205 colon): > 100 µM
- GI50 (OVCAR-8 ovarian): 10.7 µM
- TGI (OVCAR-8 ovarian): 24.4 µM
- TGI (SF-539 CNS): 33.5 µM
- GI50 (SR leukemia): 5.67 µM
- TGI (SR leukemia): 43.9 µM
- GI50 (XF 498 CNS): 15.9 µM
- TGI (XF 498 CNS): 29.4 µM
- TGI (OVCAR-5 ovarian): 32.6 µM
- GI50 (SNB-19 CNS): 14.9 µM
- TGI (SNB-19 CNS): 8.97 µM and 28.5 µM
- TGI (SK-MEL-28 melanoma): 27.8 µM
- TGI (SNB-75 CNS): 25.1 µM
- GI50 (HT29 colon): 9.17 µM
- TGI (HT29 colon): 21.3 µM
- TGI (UO-31 renal): 31.7 µM
- TGI (KM12 colon): 28 µM
- TGI (SF-268 CNS): 32.9 µM
- GI50 (HOP-92 NSCLC): 4.77 µM
- TGI (HOP-92 NSCLC): 8.9 µM and 15.5 µM
- TGI (SF-295 CNS): 28.9 µM
- TGI (NCI-H226 lung): 31.3 µM
- TGI (SK-MEL-2 melanoma): 31.3 µM
- GI50 (U251 CNS): 7.38 µM
- TGI (U251 CNS): 19.7 µM
- TGI (LOX IMVI melanoma): 30.6 µM
- GI50 (IGROV1 ovarian): 6.14 µM
- TGI (IGROV1 ovarian): 19.6 µM
- TGI (EKVX NSCLC): 34.9 µM
- GI50 (HL-60(TB) leukemia): 10.8 µM
- TGI (HL-60(TB) leukemia): > 100 µM
- TGI (HCC-2998 colon): 31 µM
- GI50 (MOLT-4 leukemia): 10.1 µM
- TGI (MOLT-4 leukemia): 38.3 µM
- TGI (OVCAR-4 ovarian): 32.3 µM
- TGI (RXF 393 renal): 36.2 µM
